The values below come from US8871753B2, “Macrocyclic compounds and their use as kinase inhibitors” (Incyte Corporation, priority 2008, dated 2014).

Each structure is given as a SMILES string. Where a name gives a salt, the structure may show the parent alone. Read-outs that look alike come from different tables or passages of the source. Bounds are passed on as bounds.

In general, IC50 refers to the concentration at which inhibition is half-maximal.

Common to all, as to assay type: biochemical
For test [1], the target named is T1, human JAK1 (a.a. 837-1142) (Homo sapiens, UniProt P23458).
T1 construct: human JAK1 (a.a. 837-1142); His tag (N); made in house; host or cells: insect cells (baculovirus)
Description: In vitro JAK kinase assay (HTRF, phosphorylation of a biotinylated peptide), JAK1. Conditions: read-out: JAK1 IC50. In short, it runs like this: (§1)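 Kinase activity was measured as phosphorylation of a biotinylated peptide, with ATP at 90 μM for JAK1, 30 μM for JAK2 and 3 μM for JAK3. Reactions ran 1 hr at room temperature, were stopped with EDTA plus SA-APC and Eu-Py20, and were read by HTRF after 40 minutes of antibody binding.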

The target of test [2] is T2, human JAK2 (a.a. 828-1132) (Homo sapiens, UniProt O60674).
T2 construct: JAK2 (a.a. 828-1132); His tag (N); made in house; host or cells: insect cells (baculovirus)
Description: In vitro JAK kinase assay (HTRF, phosphorylation of a biotinylated peptide), JAK2. Summed up: as §1
On the technique in general: Time-resolved FRET reads energy transfer from a long-lived donor to a nearby acceptor.

Test [3] concerns the target T3, human JAK3 (a.a. 781-1124) (Homo sapiens, UniProt P52333).
T3 construct: JAK3 (a.a. 781-1124); His tag (N); made in house; host or cells: insect cells (baculovirus)
Kind of test: In vitro JAK kinase assay (HTRF, phosphorylation of a biotinylated peptide), JAK3. In short, it runs like this: as §1

Test [4] deals with T4, Recombinant Human Anaplastic Lymphoma Kinase (Homo sapiens, UniProt Q9UM73).
T4 construct: purchased Invitrogen, Carlsbad, Calif
Description: ALK HTRF kinase assay. In short, it runs like this: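 Recombinant human ALK phosphorylated a biotinylated synthetic peptide. Phosphotyrosine was detected by TR-FRET between a Eu-labelled anti-phosphotyrosine antibody and streptavidin-allophycocyanin. IC50 values came from fitting signal against inhibitor concentration to a four-parameter logistic equation with variable Hill slope.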

The next test has as its target TYK2 (Homo sapiens, UniProt P29597). Description: TYK2 kinase inhibition (Table A1).
Setting [5] is: method AA1 (90 μM ATP) or AA2 (1000 μM ATP), not stated per value.
The mark [6] stands for this setting: method AA1 (30 μM ATP) or AA2 (1000 μM ATP), not stated per value.
Setting [7] is: method AA1 (3 μM ATP) or AA2 (1000 μM ATP), not stated per value.
[8] abbreviates: compound at 500 nM or 1 mM, 90 μM ATP.
Where [9] appears, read: Table B1, cells without percent sign.
Setting [10] is: percentage inhibition of the example compound at a concentration of 500 nM or 1 mM (not specified which).

T3 sequence (P52333 781-1124): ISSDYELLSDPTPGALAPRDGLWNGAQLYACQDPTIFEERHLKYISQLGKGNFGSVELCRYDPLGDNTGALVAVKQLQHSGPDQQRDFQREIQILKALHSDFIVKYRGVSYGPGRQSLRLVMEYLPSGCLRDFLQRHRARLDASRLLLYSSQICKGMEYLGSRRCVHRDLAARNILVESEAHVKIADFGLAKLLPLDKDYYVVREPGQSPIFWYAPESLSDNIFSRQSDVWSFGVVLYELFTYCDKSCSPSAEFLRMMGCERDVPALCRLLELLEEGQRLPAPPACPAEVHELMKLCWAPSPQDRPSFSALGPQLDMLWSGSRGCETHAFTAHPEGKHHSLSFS
T1 sequence (P23458 849-1154): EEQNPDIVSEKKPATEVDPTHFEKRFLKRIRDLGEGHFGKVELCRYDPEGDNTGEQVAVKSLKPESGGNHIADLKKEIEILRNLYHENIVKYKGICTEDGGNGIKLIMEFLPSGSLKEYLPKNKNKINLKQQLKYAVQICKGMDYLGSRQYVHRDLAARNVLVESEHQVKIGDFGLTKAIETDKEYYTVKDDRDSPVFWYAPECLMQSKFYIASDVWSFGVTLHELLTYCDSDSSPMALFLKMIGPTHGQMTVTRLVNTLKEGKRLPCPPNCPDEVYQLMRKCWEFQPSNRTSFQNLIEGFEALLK
Chain of TYK2 (P29597 whole entry): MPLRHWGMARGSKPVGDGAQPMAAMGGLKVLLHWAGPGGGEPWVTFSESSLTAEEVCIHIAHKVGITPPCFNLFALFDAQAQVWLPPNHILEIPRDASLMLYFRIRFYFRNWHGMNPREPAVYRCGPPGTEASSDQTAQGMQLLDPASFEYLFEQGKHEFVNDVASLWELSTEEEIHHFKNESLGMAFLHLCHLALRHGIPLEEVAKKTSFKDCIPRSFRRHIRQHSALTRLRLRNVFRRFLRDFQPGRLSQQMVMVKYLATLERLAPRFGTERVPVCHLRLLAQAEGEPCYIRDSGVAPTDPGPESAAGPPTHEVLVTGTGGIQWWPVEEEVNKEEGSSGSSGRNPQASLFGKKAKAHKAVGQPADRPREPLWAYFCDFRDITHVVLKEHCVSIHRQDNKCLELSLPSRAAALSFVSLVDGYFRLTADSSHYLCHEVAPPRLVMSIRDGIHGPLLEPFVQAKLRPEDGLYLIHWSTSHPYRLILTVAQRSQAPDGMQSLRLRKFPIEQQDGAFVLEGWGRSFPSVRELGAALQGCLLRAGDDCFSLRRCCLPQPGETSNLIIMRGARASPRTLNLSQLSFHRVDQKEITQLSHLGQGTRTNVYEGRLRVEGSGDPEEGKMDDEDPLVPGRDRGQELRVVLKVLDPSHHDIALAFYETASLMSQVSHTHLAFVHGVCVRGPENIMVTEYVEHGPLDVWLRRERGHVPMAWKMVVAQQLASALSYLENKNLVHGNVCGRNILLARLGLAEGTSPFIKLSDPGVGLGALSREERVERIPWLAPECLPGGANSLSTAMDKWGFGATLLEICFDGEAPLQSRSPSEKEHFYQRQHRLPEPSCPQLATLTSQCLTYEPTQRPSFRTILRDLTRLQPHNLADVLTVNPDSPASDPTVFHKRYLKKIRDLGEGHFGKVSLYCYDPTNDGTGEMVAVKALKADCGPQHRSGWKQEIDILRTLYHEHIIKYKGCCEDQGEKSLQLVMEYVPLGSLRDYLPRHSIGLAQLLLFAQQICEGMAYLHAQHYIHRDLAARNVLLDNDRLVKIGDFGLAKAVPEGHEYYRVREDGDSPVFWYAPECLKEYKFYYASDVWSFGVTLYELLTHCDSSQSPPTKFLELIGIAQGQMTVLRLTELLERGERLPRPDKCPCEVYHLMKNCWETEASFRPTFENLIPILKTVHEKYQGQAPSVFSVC
T2 sequence (O60674 828-1132): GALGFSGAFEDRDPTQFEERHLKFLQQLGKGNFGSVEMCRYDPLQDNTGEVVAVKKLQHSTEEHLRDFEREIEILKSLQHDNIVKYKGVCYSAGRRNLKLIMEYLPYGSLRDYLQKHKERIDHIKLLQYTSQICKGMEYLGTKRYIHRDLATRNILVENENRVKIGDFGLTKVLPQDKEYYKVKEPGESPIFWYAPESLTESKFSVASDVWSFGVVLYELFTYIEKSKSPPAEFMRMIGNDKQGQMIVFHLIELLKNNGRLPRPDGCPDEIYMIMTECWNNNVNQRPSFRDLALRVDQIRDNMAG
T4 sequence (Q9UM73 19-1620): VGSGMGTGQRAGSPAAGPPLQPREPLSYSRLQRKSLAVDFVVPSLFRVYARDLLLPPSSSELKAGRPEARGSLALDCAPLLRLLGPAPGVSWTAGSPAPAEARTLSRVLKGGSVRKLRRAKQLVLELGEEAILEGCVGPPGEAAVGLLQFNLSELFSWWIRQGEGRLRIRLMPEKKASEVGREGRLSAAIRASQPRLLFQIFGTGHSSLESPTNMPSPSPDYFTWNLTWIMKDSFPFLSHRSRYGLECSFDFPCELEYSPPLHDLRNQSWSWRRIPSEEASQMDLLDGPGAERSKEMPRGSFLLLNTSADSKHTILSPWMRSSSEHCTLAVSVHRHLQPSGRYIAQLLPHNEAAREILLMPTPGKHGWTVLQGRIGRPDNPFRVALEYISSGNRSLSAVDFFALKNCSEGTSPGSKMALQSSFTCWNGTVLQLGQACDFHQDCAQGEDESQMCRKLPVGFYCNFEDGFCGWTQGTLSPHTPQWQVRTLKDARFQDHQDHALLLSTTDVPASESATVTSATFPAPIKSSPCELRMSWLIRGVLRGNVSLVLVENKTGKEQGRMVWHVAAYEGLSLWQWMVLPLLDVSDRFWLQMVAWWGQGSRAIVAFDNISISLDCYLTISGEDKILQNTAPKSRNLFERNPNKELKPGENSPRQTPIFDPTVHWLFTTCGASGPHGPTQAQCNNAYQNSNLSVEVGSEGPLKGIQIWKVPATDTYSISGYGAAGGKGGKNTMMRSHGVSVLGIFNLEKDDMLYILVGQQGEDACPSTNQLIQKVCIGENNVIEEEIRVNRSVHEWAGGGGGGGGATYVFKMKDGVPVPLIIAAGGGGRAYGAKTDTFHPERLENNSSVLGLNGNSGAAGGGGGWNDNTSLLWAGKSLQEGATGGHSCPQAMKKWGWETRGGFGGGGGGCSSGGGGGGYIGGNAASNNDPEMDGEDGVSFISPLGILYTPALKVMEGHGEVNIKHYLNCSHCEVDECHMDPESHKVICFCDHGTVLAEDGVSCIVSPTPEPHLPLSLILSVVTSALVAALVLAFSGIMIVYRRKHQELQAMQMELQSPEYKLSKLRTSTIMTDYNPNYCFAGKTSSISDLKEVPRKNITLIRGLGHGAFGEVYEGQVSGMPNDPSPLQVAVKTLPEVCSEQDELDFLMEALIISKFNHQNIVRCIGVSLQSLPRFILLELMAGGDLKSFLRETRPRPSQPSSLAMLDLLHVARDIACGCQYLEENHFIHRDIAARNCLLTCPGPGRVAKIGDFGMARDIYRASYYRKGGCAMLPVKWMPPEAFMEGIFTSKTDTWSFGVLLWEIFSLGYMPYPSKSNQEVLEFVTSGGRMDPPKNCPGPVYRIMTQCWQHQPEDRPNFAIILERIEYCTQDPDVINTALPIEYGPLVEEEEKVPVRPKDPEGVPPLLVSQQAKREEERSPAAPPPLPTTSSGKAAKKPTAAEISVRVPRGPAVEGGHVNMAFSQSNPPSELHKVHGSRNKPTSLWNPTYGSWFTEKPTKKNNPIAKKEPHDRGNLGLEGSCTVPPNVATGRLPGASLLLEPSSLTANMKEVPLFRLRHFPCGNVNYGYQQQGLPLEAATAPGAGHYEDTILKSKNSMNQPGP

Regarding `N#Cc1c(F)cccc1N1CCC(CC(=O)Nc2ccc3cc2CCc2cncc(c2)Nc2ncc(Cl)c(n2)N3)CC1` [Example A234, N-[6-Chloro-2,4,8,18,22-pentaazatetracyclo[14.3.1.1(3,7).1(9,13)]docosa-1(20),3(22),4,6,9(21),10,12,16,18-nonaen-12-yl]-2-[1-(2-cyano-3-fluorophenyl)piperidin-4-yl]acetamide tris(trifluoroacetate)], the IC50 in test [1] (setting [5]) is 0.0015 µM; in test [2] (setting [6]) it was 0.08 µM; in test [3] (setting [7]) it was above 0.4 µM; on TYK2 it was 0.072 µM. The “ALK % of inhibition at a concentration of 500 nM or 1 mM” value (“ALK % of inhibition” below) in test [4] (setting [8]) is 13%.

With `CC(C)(C)C(=O)Nc1ccc2cc1CCc1cccc(c1)Nc1ncc(Cl)c(n1)N2` [Example B58, N-[6-Chloro-2,4,8,22-tetraazatetracyclo[14.3.1.1(3,7).1(9,13)]docosa-1(20), 3(22),4,6,9(21),10,12,16,18-nonaen-12-yl]-2,2-dimethylpropanamide trifluoroacetate], the IC50 was 0.365 µM in test [1] (Table B1); 0.047 µM in test [2] (Table B1); 0.107 µM in test [3] (Table B1); above 1 µM in test [4] (setting [9]); 0.228 µM against TYK2 (Table B1).

For the compound `CCNC(=O)N1CCC(C(=O)Nc2ccc3cc2CCc2cccc(c2)Nc2ncc(Cl)c(n2)N3)CC1` [Example A59, N(4)-[6-Chloro-2,4,8,22-tetraazatetracyclo[14.3.1.1(3,7).1(9,13)]docosa-1(20),3(22),4,6,9(21),10,12,16,18-nonaen-12-yl]-N(1)-ethylpiperidine-1,4-dicarboxamide trifluoroacetate], the IC50 was determined as 0.026 µM in test [1] (setting [5]), 0.0069 µM in test [2] (setting [6]), 0.019 µM in test [3] (setting [7]) and 0.015 µM on TYK2. Further, in test [4] (setting [8]), the “ALK % of inhibition” value was determined as 39%.

Turning to `O=C(Nc1ccccc1)N1CCN(c2cc(-c3cc4cc(c3)Nc3ncc(Cl)c(n3)Nc3cccc(c3)OCC4)ccn2)CC1` [Example D44, 4-{4-[6-Chloro-14-oxa-2,4,8,23-tetraazatetracyclo[15.3.1.1(3,7).1(9,13)]tricosa-1(21),3(23),4,6,9(22),10,12,17,19-nonaen-19-yl]pyridin-2-yl}-N-phenylpiperazine-1-carboxamide bis(trifluoroacetate)], the IC50 was 0.0026 µM in test [1] (Table D1); 0.0015 µM in test [2] (Table D1); 0.018 µM in test [3] (Table D1); 0.48 µM in test [4] (Table D1, 90 μM ATP); 0.015 µM on TYK2 (Table D1).

For `CC(Oc1ccc2cc1CCc1cccc(c1)Nc1ncc(Cl)c(n1)N2)C(=O)Nc1ccccc1` (stereo not shown) [Example A16, 2-{[6-Chloro-2,4,8,22-tetraazatetracyclo[14.3.1.1(3,7).1(9,13)]docosa-1(20),3(22),4,6,9(21),10,12,16,18-nonaen-12-yl]oxy}-N-phenylpropanamide trifluoroacetate], the IC50 was 0.012 µM in test [1] (setting [5]), 0.01 µM in test [2] (setting [6]), 0.06 µM in test [3] (setting [7]) and 0.032 µM against TYK2. Moreover, the “ALK % of inhibition” value in test [4] (setting [8]) amounted to 21%.

With `COc1cccc(S(=O)(=O)N2CCC(CC(=O)Nc3ccc4cc3CCc3cncc(c3)Nc3ncc(Cl)c(n3)N4)CC2)c1` [Example A196, N-[6-Chloro-2,4,8,18,22-pentaazatetracyclo[14.3.1.1(3,7).1(9,13)]docosa-1(20),3(22),4,6,9(21),10,12,16,18-nonaen-12-yl]-2-{1-[(3-methoxyphenyl)sulfonyl]piperidin-4-yl}acetamide bis(trifluoroacetate)], the IC50 in test [1] (setting [5]) is 0.015 µM; in test [2] (setting [6]) it was 0.1 µM; in test [3] (setting [7]) it was above 0.2 µM; at TYK2, above 0.2 µM. Moreover, the “ALK % of inhibition” value in test [4] (setting [8]) is 34%.

As for `O=C(CC1CCN(S(=O)(=O)c2ccccc2Cl)CC1)Nc1ccc2cc1CCc1cncc(c1)Nc1ncc(Cl)c(n1)N2` [Example A223, N-[6-Chloro-2,4,8,18,22-pentaazatetracyclo[14.3.1.1(3,7).1(9,13)]docosa-1(20),3(22),4,6,9(21),10,12,16,18-nonaen-12-yl]-2-{1-[(2-chlorophenyl)sulfonyl]piperidin-4-yl}acetamide bis(trifluoroacetate)], the IC50 was 0.005 µM in test [1] (setting [5]), 0.09 µM in test [2] (setting [6]), above 0.4 µM in test [3] (setting [7]) and above 0.4 µM on TYK2. Further, in test [4] (setting [8]), the “ALK % of inhibition” value came to 41%.

Regarding `O=C(Nc1ccc2cc1CCc1cccc(c1)Nc1ncc(Cl)c(n1)N2)C1CCN(C(=O)Nc2ccccc2)CC1` [Example A36, N(4)-[6-Chloro-2,4,8,22-tetraazatetracyclo[14.3.1.1(3,7).1(9,13)]docosa-1(20),3(22),4,6,9(21),10,12,16,18-nonaen-12-yl]-N(1)-phenylpiperidine-1,4-dicarboxamide trifluoroacetate], the concentration for half-maximal inhibition (IC50) in test [1] (setting [5]) turned out to be 0.0024 µM; in test [2] (setting [6]), 0.0067 µM; in test [3] (setting [7]) it was 0.026 µM; on TYK2, 0.027 µM. Moreover, the “ALK % of inhibition” value in test [4] (setting [8]) is 48%.

As for `O=C(Nc1cc2cc(c1)OCCSc1cccc(c1)Nc1nc(ncc1Cl)N2)c1ccc2occc2c1` [Example D61, N-[6-Chloro-17-oxa-14-thia-2,4,8,24-tetraazatetracyclo[16.3.1.1(3,7).1(9,13)]tetracosa-1(22),3(24),4,6,9(23),10,12,18,20-nonaen-20-yl]-1-benzofuran-5-carboxamide trifluoroacetate], the IC50 in test [1] (Table D1) was 0.018 µM; in test [2] (Table D1) it was 0.0021 µM; in test [3] (Table D1), 0.041 µM; in test [4] (Table D1, 90 μM ATP), above 10 µM; against TYK2 (Table D1), 0.008 µM.

As to `O=C(CC1CCN(C(=O)NC2CCCC2)CC1)Nc1ccc2cc1CCc1cccc(c1)Nc1ncc(Cl)c(n1)N2` [Example A64, 4-(2-{[6-Chloro-2,4,8,22-tetraazatetracyclo[14.3.1.1(3,7).1(9,13)]docosa-1(20),3(22),4,6,9(21),10,12,16,18-nonaen-12-yl]amino}-2-oxoethyl)-N-cyclopentylpiperidine-1-carboxamide trifluoroacetate], the IC50 in test [1] (setting [5]) was determined as 0.013 µM; in test [2] (setting [6]), 0.0065 µM; in test [3] (setting [7]), 0.03 µM; on TYK2 it was 0.023 µM. The “ALK % of inhibition” value in test [4] (setting [8]) was determined as 23%.

For `N#Cc1cccnc1N1CCN(C(=O)Nc2ccc3cc2CCc2cncc(c2)Nc2ncc(Cl)c(n2)N3)CC1` [Example B311, N-[6-Chloro-2,4,8,18,22-pentaazatetracyclo[14.3.1.1(3,7).1(9,13)]docosa-1(20),3(22),4,6,9(21),10,12,16,18-nonaen-12-yl]-4-(3-cyanopyridin-2-yl)piperazine-1-carboxamide tris(trifluoroacetate)], the IC50 in test [1] (Table B1) is 0.02 µM; in test [2] (Table B1), 0.17 µM; in test [3] (Table B1) it was above 0.4 µM; on TYK2 (Table B1) it was 0.146 µM. For the same compound, the “ALK % of inhibition” value in test [4] (setting [10]) is on record as 67%.

In the case of `COc1ccc(C(=O)Nc2ccc3cc2CCc2cccc(c2)Nc2ncc(Cl)c(n2)N3)cc1` [Example B67, N-[6-Chloro-2,4,8,22-tetraazatetracyclo[14.3.1.1(3,7).1(9,13)]docosa-1(20), 3(22),4,6,9(21),10,12,16,18-nonaen-12-yl]-4-methoxybenzamide trifluoroacetate], the IC50 in test [1] (Table B1) amounted to 0.0032 µM; in test [2] (Table B1), 0.0019 µM; in test [3] (Table B1) it was 0.015 µM; in test [4] (setting [9]), 0.22 µM; against TYK2 (Table B1), 0.006 µM.

For `CC(C)(C)OC(=O)NCCNC(=O)Nc1ccc2cc1CCc1cccc(c1)Nc1ncc(Cl)c(n1)N2` [Example B185, tert-Butyl {2-[({[6-chloro-2,4,8,22-tetraazatetracyclo[14.3.1.1(3,7).1(9,13)]docosa-1(20),3(22),4,6,9(21),10,12,16,18-nonaen-12-yl]amino}carbonyl)amino]ethyl}carbamate], the IC50 in test [1] (Table B1) turned out to be 0.00062 µM; in test [2] (Table B1), 0.0039 µM; in test [3] (Table B1), 0.046 µM; against TYK2 (Table B1), 0.004 µM. Also, the “ALK % of inhibition” value in test [4] (compound at a concentration of 500 nM or 1 mM (not specified), cells shown as percentage) is 12%.

For the compound `Cc1occc1NC(=O)N1CCC(CN(C)Cc2ccc3cc2CCc2cncc(c2)Nc2ncc(Cl)c(n2)N3)CC1` [Example B349, 4-{[{[6-Chloro-2,4,8,18,22-pentaazatetracyclo[14.3.1.1(3,7).1(9,13)]docosa-1(20),3(22),4,6,9(21),10,12,16,18-nonaen-12-yl]methyl}(methyl)amino]methyl}-N-(2-methyl-3-furyl)piperidine-1-carboxamide tris(trifluoroacetate)], the IC50 in test [1] (Table B1) stood at 0.011 µM; in test [2] (Table B1) it was 0.15 µM; in test [3] (Table B1), 0.371 µM; against TYK2 (Table B1), 0.3 µM. Moreover, the “ALK % of inhibition” value in test [4] (setting [10]) is on record as 61%.
